From US20200206157A1, “COMPOSITION FOR USE IN THE PREVENTION AND TREATMENT OF PATHOLOGIES OF THE CARDIOVASCULAR APPARATUS” (PHARMANUTRA S.P.A., priority 2017, published 2020)

Key:
[1] = tested on: human aortic cell cultures; assay: Calcification induced by inorganic phosphate (Pi, 2 mM) in human aortic cell cultures, Alizarin Red Staining quantification; type: cell-based; details: products at 0.03%; for % VAR vs CTR+: average % variation of ARS vs positive control (Pi 2 mM only); for % VAR vs CTR−: average % variation of ARS vs untreated negative control; for % VAR vs CTR− / ARS mM average: Pi 2 mM; for ARS mM average: human aortic cells, 7 days, ARS quantity proportional to calcium content
Protocol: (II) Similarly to what has been stated for the in vitro (I) study, the efficacy was tested of the composition according to the present invention comprising sucrosomial iron pyrophosphate (SRM) (Sucrosomiale®; Sucrosomial®), vitamin K2 menaquinone-7 (MK-7) and magnesium carbonate (MC) (composition called TRIO in Table 1 and FIG. 10) on the slowing of the progression of the vascular calcification induced by high levels of sodium phosphate (Pi) in a vascular cell culture and compared with the efficacy of the single components of the TRIO composition.
In particular, to execute the efficacy test, human aortic cell cultures were treated for 7 days with inorganic phosphate (Pi, 2 mM), a known calcifying agent, to induce mineralization of the cells, and with the products subjected to a concentration test 0.03% (% g of compound under examination/solution volume) and subsequently treated with the compound compositions under examination. At the end of the experimental treatment, the calcium content was quantified by a colorimetric assay, i.e. staining of the calcium deposits by Alizarin Red Staining (ARS).
The experimental design specified: untreated cell cultures (negative control CTR−), cell cultures (positive control CTR+) treated only with the calcifying agent (Pi) and cell cultures in which a calcification event was induced experimentally by the calcifying agent (Pi) and subsequently treated with the compositions/compounds under examination (0.03% concentrations) such as TRIO composition, only sucrosomial iron pyrophosphate (SRM) (Sucrosomiale®; Sucrosomial®), only vitamin K2 menaquinone-7 (MK-7) and only magnesium carbonate (MC).
The Alizarin Red Staining S (ARS) is an anthraquinone staining solution that is widely used to evaluate calcium deposits in cell cultures. Alizarin Red Staining (ARS) is versatile because the dye can be easily extracted from the coloured single layer of the cells and can be promptly dosed. The ARS quantification assay provides a sensitive tool for partial quantification of calcium in a cell matrix. Mineralization is assessed by extracting the low pH calcified mineral, neutralization with ammonia hydroxide and 405 nm colorimetric detection.
In the present study, the cells subjected to the different aforementioned treatments were fixed for ARS and the deposition of mineral was quantified by a commercially available colorimetric kit. For this purpose, a calibration curve was plotted with known and increasing ARS concentrations.
The results are set out in Table 1 and FIG. 10 as an ARS quantity that is directly proportional to the calcium content in the different experimental treatments (average value±st. dev.) and as average % variation from the controls. The data obtained from the different experimental groups were analyzed statistically and compared with T-test. The significant values in FIG. 10 compared with the positive control (p<0.05) are marked with an asterisk (*).

[2] = tested on: vascular smooth muscle cells (VSMCs); assay: Vascular calcification induced by Pi 5 mM in VSMCs, extracellular calcium deposition on day 7; type: cell-based; details: rat VSMCs; for calcification inhibition: compared with 5 mM Pi in the same solvent; for effect of the individual compounds on the calcification (dose-response curves): Pi 5 mM
Protocol: The experimental model consists of vascular smooth muscle cells (VSMCs) removed from the aorta of a rat (primary cells) and stimulated for 7 days with Na3PO4 (Pi) 5 mM to induce them to […]. […] On day 7, the effect of the treatment on the extracellular calcium deposition was analyzed both by a qualitative histological method (staining of calcium deposits by Alizarin Red Staining), and by a quantitative method, by measuring the amount of […] calcium by a spectrophotometric technique (FIG. 1). Each type of experiment was repeated at least 3 times and each condition was tested at least three times within every single experiment.

## CC(C)=CCC/C(C)=C/CC/C(C)=C/CC/C(C)=C/CC/C(C)=C/CC/C(C)=C/CC/C(C)=C/CC1=C(C)C(=O)c2ccccc2C1=O [9_MK7, menaquinone-7]
[1]
  % VAR vs CTR+: 58.0%
  % VAR vs CTR−: 34.7%
  ARS mM average: 0.100 mM
[2]; in ethanol
  calcification inhibition: 20%
[2]; in ethyl acetate
  calcification inhibition: 15 to 30%

## O=C([O-])[O-].[Mg+2] [11_MC, magnesium carbonate]
[1]
  % VAR vs CTR+: −49.6%
  % VAR vs CTR−: 61.7%
  ARS mM average: 0.120 mM

## [Cl-].[Cl-].[Mg+2] [MgCl2, magnesium chloride]
[2]
  effect of the individual compounds on the calcification (dose-response curves): powerful calcification inhibitors, with a dose-dependent protective effect

## iron (III) pyrophosphate [Fe4(P2O7)3]
[2]
  effect of the individual compounds on the calcification (dose-response curves): powerful calcification inhibitors, with a dose-dependent protective effect
